Inhibition data for 27 compounds are collected here from patent US12084436B2, “Heterocyclic compound” (Takeda Pharmaceutical Company Limited, priority 2019, dated 2024).

This experiment addresses T1, HDAC6 enzyme (Homo sapiens, UniProt Q9UBN7).
T1 construct: prepared by transducing full length HDAC6 gene into Sf-9 insect cells; GST; purchased SignalChem; host or cells: Sf-9 insect cells
T1 sequence (Q9UBN7 1-1215): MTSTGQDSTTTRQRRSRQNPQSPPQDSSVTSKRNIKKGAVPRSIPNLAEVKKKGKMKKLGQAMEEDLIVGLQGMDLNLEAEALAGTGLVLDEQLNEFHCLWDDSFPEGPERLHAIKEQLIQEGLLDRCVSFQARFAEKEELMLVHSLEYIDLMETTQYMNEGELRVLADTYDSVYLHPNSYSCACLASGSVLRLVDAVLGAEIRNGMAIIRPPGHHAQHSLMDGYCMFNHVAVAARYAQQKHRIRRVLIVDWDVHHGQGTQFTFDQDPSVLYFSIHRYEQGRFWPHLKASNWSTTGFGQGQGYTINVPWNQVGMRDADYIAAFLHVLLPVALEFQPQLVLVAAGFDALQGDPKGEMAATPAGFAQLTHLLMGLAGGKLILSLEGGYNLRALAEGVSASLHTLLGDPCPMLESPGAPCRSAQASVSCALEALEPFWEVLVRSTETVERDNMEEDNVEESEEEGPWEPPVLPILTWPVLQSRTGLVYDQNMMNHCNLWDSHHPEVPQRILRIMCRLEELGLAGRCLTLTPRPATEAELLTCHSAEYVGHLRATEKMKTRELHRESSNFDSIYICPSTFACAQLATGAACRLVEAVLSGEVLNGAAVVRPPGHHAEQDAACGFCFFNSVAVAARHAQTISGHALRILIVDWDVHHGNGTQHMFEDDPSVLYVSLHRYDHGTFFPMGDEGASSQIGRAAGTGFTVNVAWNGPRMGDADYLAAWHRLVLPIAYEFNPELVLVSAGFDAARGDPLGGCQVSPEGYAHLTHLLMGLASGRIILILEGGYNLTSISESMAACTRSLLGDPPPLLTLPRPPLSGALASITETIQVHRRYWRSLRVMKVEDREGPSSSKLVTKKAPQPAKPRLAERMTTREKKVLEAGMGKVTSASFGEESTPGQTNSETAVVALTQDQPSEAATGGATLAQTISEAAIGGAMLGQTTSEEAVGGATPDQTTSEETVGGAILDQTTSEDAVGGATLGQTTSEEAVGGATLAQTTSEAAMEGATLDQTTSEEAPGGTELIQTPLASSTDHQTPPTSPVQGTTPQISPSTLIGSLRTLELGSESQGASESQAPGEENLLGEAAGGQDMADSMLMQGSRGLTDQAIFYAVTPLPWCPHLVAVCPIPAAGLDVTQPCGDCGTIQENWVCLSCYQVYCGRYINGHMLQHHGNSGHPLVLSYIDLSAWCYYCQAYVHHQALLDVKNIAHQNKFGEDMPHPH
Nature of the experiment: HDAC6 enzyme inhibitory assay (HDAC-Glo I/II Assay kit, luminescence). It counts as biochemical. As to conditions: 10 μM test compound; wells without enzyme = 100% inhibition; read-out: HDAC6 inhibitory rate (%) (10 μM). An outline of the steps:
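Full-length human HDAC6, GST-purified from Sf-9 cells, was preincubated with compound for 60 min at room temperature in Tris-HCl pH 7.5 buffer with glutathione and Tween-20. Substrate-developer was then added, and luminescence was read after 20 min at room temperature. Inhibition was expressed relative to no-enzyme wells, taken as 100% inhibition.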

As for `O=C(OC1CCOCC1)N(Cc1ccc(F)cc1)N1Cc2ccc(-c3nnc(C(F)F)o3)cc2C1=O` [Example 23c, oxan-4-yl {6-[5-(difluoromethyl)-1,3,4-oxadiazol-2-yl]-1-oxo-1,3-dihydro-2H-isoindol-2-yl}[(4-fluorophenyl)methyl]carbamate], the inhibition at 10 µM was found to be 101%.

Take `Fc1cc(-c2nnc(C(F)F)o2)cc(-c2nccn2Cc2ccncc2)c1` [Example 24a, 4-[(2-{3-[5-(difluoromethyl)-1,3,4-oxadiazol-2-yl]-5-fluorophenyl}-1H-imidazol-1-yl)methyl]pyridine]: the inhibition at 10 µM is 98%.

Take `COC1CCCC(OC(=O)N(Cc2ccc(F)cc2)N2Cc3ccc(-c4nnc(C(F)F)o4)cc3C2=O)C1` (stereo not drawn) [Example 24c, 3-methoxycyclohexyl {6-[5-(difluoromethyl)-1,3,4-oxadiazol-2-yl]-1-oxo-1,3-dihydro-2H-isoindol-2-yl}[(4-fluorophenyl)methyl]carbamate]: the inhibition at 10 µM was 100%.

Consider `Fc1cc(-c2nnc(C(F)F)o2)cc(-c2nccn2Cc2cncnc2)c1` [Example 25a, 5-[(2-{3-[5-(difluoromethyl)-1,3,4-oxadiazol-2-yl]-5-fluorophenyl}-1H-imidazol-1-yl)methyl]pyrimidine], for which the inhibition at 10 µM came out at 98%.

For the compound `CN1C(=O)c2cc(-c3nnc(C(F)F)o3)cnc2CC1(C)c1ccc(F)cc1` (stereo not drawn) [Example 25b, 3-[5-(difluoromethyl)-1,3,4-oxadiazol-2-yl]-7-(4-fluorophenyl)-6,7-dimethyl-7,8-dihydro-1,6-naphthyridin-5(6H)-one], the inhibition at 10 µM came out at 100%.

Regarding `O=C(OCc1ccccn1)N(Cc1ccc(F)cc1)N1Cc2ccc(-c3nnc(C(F)F)o3)cc2C1=O` [Example 25c, (pyridin-2-yl)methyl {6-[5-(difluoromethyl)-1,3,4-oxadiazol-2-yl]-1-oxo-1,3-dihydro-2H-isoindol-2-yl}[(4-fluorophenyl)methyl]carbamate], the inhibition at 10 µM was 99%.

As to `Fc1cc(-c2nnc(C(F)F)o2)cc(-c2nccn2Cc2cccnn2)c1` [Example 26a], the inhibition at 10 µM was determined as 96%.

In the case of `CN1C(=O)c2cc(-c3nnc(C(F)F)o3)ccc2OC1(C)c1ccc(Cl)cc1` (stereo not drawn) [Example 26b, 2-(4-chlorophenyl)-6-[5-(difluoromethyl)-1,3,4-oxadiazol-2-yl]-2,3-dimethyl-2,3-dihydro-4H-1,3-benzoxazin-4-one], the inhibition at 10 µM was 100%.

On to `O=C(OC1CCOC1)N(Cc1ccc(F)cc1)N1Cc2ccc(-c3nnc(C(F)F)o3)cc2C1=O` (stereo not drawn) [Example 26c, oxolan-3-yl {6-[5-(difluoromethyl)-1,3,4-oxadiazol-2-yl]-1-oxo-1,3-dihydro-2H-isoindol-2-yl}[(4-fluorophenyl)methyl]carbamate], for which the inhibition at 10 µM is 99%.

Consider `COCCn1ccnc1-c1cc(F)cc(-c2nnc(C(F)F)o2)c1` [Example 27a], for which the inhibition at 10 µM was 95%.

In the case of `CCS(=O)(=O)N(Cc1ccc(F)cc1)N1Cc2ccc(-c3nnc(C(F)F)o3)cc2C1=O` [Example 27c, N-{6-[5-(difluoromethyl)-1,3,4-oxadiazol-2-yl]-1-oxo-1,3-dihydro-2H-isoindol-2-yl}-N-[(4-fluorophenyl)methyl] ethanesulfonamide], the inhibition at 10 µM is 99%.

For `Fc1cc(-c2nnc(C(F)F)o2)cc(-c2nccn2CC2CCC(F)(F)CC2)c1` [Example 28a, 2-(3-{1-[(4,4-difluorocyclohexyl)methyl]-1H-imidazol-2-yl)-5-fluorophenyl)-5-(difluoromethyl)-1,3,4-oxadiazole], the inhibition at 10 µM amounted to 99%.

In the case of `O=C1NN(C2CCOCC2)Cc2ccc(-c3nnc(C(F)F)o3)cc21` [Example 28b, 7-[5-(difluoromethyl)-1,3,4-oxadiazol-2-yl]-3-(oxan-4-yl)-3,4-dihydrophthalazin-1(2H)-one], the inhibition at 10 µM is 97%.

Consider `CN(Cc1ccc(F)cc1)N1Cc2ccc(-c3nnc(C(F)F)o3)cc2C1=O` [Example 28c, 6-[5-(difluoromethyl)-1,3,4-oxadiazol-2-yl]-2-{[(4-fluorophenyl)methyl](methyl)amino}-2,3-dihydro-1H-isoindol-1-one], for which the inhibition at 10 µM was determined as 99%.

For `Fc1cc(-c2nnc(C(F)F)o2)cc(-c2nccn2CC2CCCOC2)c1` (stereo not drawn) [Example 29a, 2-(difluoromethyl)-5-(3-fluoro-5-{1-[(oxan-3-yl)methyl]-1H-imidazol-2-yl}phenyl)-1,3,4-oxadiazole], the inhibition at 10 µM was 99%.

Take `O=C1NN(C2CCC(F)(F)CC2)Cc2ccc(-c3nnc(C(F)F)o3)cc21` [Example 29b, 3-(4,4-difluorocyclohexyl)-7-[5-(difluoromethyl)-1,3,4-oxadiazol-2-yl]-3,4-dihydrophthalazin-1(2H)-one]: the inhibition at 10 µM is 99%.

Regarding `O=C1c2cc(-c3nnc(C(F)F)o3)ccc2CN1NC1CCCCC1` [Example 29c, 2-(cyclohexylamino)-6-[5-(difluoromethyl)-1,3,4-oxadiazol-2-yl]-2,3-dihydro-1H-isoindol-1-one], the inhibition at 10 µM turned out to be 95%.

With `Fc1cc(-c2nnc(C(F)F)o2)cc(-c2nccn2CC2CCOCC2)c1` [Example 30a, 2-(difluoromethyl)-5-(3-fluoro-5-{1-[(oxan-4-yl)methyl]-1H-imidazol-2-yl}phenyl)-1,3,4-oxadiazole], the inhibition at 10 µM is 98%.

For `O=C1NN(c2ccc(F)c(F)c2)Cc2ccc(-c3nnc(C(F)F)o3)cc21` [Example 30b, 7-[5-(difluoromethyl)-1,3,4-oxadiazol-2-yl]-3-(3,4-difluorophenyl)-3,4-dihydrophthalazin-1(2H)-one], the inhibition at 10 µM was 100%.

For `O=C1c2cc(-c3nnc(C(F)F)o3)ccc2CN1Nc1ccc(F)cc1` [Example 30c, 6-[5-(difluoromethyl)-1,3,4-oxadiazol-2-yl]-2-(4-fluoroanilino)-2,3-dihydro-1H-isoindol-1-one], the inhibition at 10 µM is 92%.

For the compound `CC(=O)N1CCC(Cn2ccnc2-c2cc(F)cc(-c3nnc(C(F)F)o3)c2)CC1` [Example 31a, 1-{4-[(2-{3-[5-(difluoromethyl)-1,3,4-oxadiazol-2-yl]-5-fluorophenyl}-1H-imidazol-1-yl)methy]piperidin-1-yl}ethan-1-one], the inhibition at 10 µM stood at 98%.

For the compound `O=C1NN(c2ccc(F)c(Cl)c2)Cc2ccc(-c3nnc(C(F)F)o3)cc21` [Example 31b, 3-(3-chloro-4-fluorophenyl)-7-[5-(difluoromethyl)-1,3,4-oxadiazol-2-yl]-3,4-dihydrophthalazin-1(2H)-one], the inhibition at 10 µM stood at 100%.

Take `O=C1c2cc(-c3nnc(C(F)F)o3)ccc2CN1NCC(F)(F)F` [Example 31c, 6-[5-(difluoromethyl)-1,3,4-oxadiazol-2-yl]-2-[(2,2,2-trifluoroethyl)amino]-2,3-dihydro-1H-isoindol-1-one]: the inhibition at 10 µM came to 90%.

`CCNC(=O)Cn1ccnc1-c1cc(F)cc(-c2nnc(C(F)F)o2)c1` [Example 32a, 2-(2-{3-[5-(difluoromethyl)-1,3,4-oxadiazol-2-yl]-5-fluorophenyl]-1H-imidazol-1-yl)-N-ethylacetamide]: the inhibition at 10 µM stood at 91%.

As for `CN1C(=O)c2cc(-c3nnc(C(F)F)o3)ccc2OC1(C)c1ccc(F)c(F)c1` (stereo not drawn) [Example 32b, 6-[5-(difluoromethyl)-1,3,4-oxadiazol-2-yl]-2-(3,4-difluorophenyl)-2,3-dimethyl-2,3-dihydro-4H-1,3-benzoxazin-4-one], the inhibition at 10 µM was 100%.

`O=C1c2cc(-c3nnc(C(F)F)o3)ccc2CN1Nc1c(F)c(F)c(F)c(F)c1F` [Example 32c, 6-[5-(difluoromethyl)-1,3,4-oxadiazol-2-yl]-2-(pentafluoroanilino)-2,3-dihydro-1H-isoindol-1-one]: the inhibition at 10 µM stood at 95%.

Consider `O=C(Cn1ccnc1-c1cc(F)cc(-c2nnc(C(F)F)o2)c1)N1CCCC1` [Example 33a, 2-(2-{3-[5-(difluoromethyl)-1,3,4-oxadiazol-2-yl]-5-fluorophenyl}-1H-imidazol-1-yl)-1-(pyrrolidin-1-yl)ethan-1-one], for which the inhibition at 10 µM was determined as 86%.
